pIC50: −log10 of the molar value. Read-outs that look alike come from different tables or passages of the source.
Columns and labels:
leukemia cells K562 = assay: Cytotoxicity in drug-sensitive leukemia K562 cells by MTS assay; type: cell-based; details: Homo sapiens; for pIC50: drug-sensitive K562, MTS assay, 72 hours, read-out: IC50 in K562; for IC50: drug-sensitive K562, values given in text in nM, read-out: IC50 against K562
Experimental: The drug resistance index (DRI, ratio of IC50 in drug-resistant cells over IC50 in drug-sensitive cells) is a good indicator of drug's ability to overcome resistance.
The anticancer activities of Compounds 1-6 were examined in leukemia cells K562 and doxorubicin-resistant K562/Dox cells by MTS assay. The drug-resistant K562/Dox cell line was induced by doxorubicin treatment. The cell line was cultured in 0.1 μM doxorubicin one week/per month, followed by 10 days culture without doxrubicin before experiment. This is to maintain similar high levels of P-gp expression in each experiment. In drug-resistant K562 cells, MDR1 mRNA was induced by 600-fold higher than drug-sensitive K562 cells as measured by real-time PCR (data not shown). […] Then 20 μL MTS/PMS assay solution was added to each well and the absorbance was recorded. The cell survival was calculated as percentage of cell control group without treatment. The anticancer activities are summarized in Table 2 and graphically illustrated in FIG. 5. The IC50 values were calculated by WinNonlin 4.1 (Pharsight) from the dose-response curves of percentage of cell growth with the model: E=Emax−(Emax−E0)×[C/(C+EC50)]

[1] = test system: doxorubicin-resistant K562/Dox cells; assay: Cytotoxicity in doxorubicin-resistant K562/Dox cells by MTS assay; type: cell-based; details: for pIC50: Homo sapiens, drug-resistant K562/Dox, MTS assay, 72 hours; for DRI (drug resistance index): ratio of IC50 in drug-resistant cells over IC50 in drug-sensitive cells
Experimental: The drug-resistant K562/Dox cell line was induced by doxorubicin treatment. The cell line was cultured in 0.1 μM doxorubicin one week/per month, followed by 10 days culture without doxrubicin before experiment. This is to maintain similar high levels of P-gp expression in each experiment. […] Then 20 μL MTS/PMS assay solution was added to each well and the absorbance was recorded. The cell survival was calculated as percentage of cell control group without treatment. […] The IC50 values were calculated by WinNonlin 4.1 (Pharsight) from the dose-response curves of percentage of cell growth with the model: E=Emax−(Emax−E0)×[C/(C+EC50)]

[2] = test system: drug-resistant leukemia K562/Dox xenograft; assay: K562/Dox leukemia xenograft mouse model; details: for tumor growth inhibition (in words): 5 or 10 mg/kg intraperitoneally twice per week for three weeks, one week after dose
Experimental: In this animal model, 10^7 drug-resistant leukemia K562/Dox was injected subcutaneously into nude mice. […] The tumor volume was measured every three days.

P-gp = biological target: T1, P-gp (Homo sapiens, UniProt P08183); assay: P-gp export (uptake and efflux by FACS) in K562/Dox cells with or without CsA; type: cell-based; details: CsA 5 μM, 30 min incubation
T1 construct: endogenous in cells; host or cells: K562/Dox (doxorubicin-induced drug-resistant K562 leukemia cells)
T1 sequence (P08183 whole entry): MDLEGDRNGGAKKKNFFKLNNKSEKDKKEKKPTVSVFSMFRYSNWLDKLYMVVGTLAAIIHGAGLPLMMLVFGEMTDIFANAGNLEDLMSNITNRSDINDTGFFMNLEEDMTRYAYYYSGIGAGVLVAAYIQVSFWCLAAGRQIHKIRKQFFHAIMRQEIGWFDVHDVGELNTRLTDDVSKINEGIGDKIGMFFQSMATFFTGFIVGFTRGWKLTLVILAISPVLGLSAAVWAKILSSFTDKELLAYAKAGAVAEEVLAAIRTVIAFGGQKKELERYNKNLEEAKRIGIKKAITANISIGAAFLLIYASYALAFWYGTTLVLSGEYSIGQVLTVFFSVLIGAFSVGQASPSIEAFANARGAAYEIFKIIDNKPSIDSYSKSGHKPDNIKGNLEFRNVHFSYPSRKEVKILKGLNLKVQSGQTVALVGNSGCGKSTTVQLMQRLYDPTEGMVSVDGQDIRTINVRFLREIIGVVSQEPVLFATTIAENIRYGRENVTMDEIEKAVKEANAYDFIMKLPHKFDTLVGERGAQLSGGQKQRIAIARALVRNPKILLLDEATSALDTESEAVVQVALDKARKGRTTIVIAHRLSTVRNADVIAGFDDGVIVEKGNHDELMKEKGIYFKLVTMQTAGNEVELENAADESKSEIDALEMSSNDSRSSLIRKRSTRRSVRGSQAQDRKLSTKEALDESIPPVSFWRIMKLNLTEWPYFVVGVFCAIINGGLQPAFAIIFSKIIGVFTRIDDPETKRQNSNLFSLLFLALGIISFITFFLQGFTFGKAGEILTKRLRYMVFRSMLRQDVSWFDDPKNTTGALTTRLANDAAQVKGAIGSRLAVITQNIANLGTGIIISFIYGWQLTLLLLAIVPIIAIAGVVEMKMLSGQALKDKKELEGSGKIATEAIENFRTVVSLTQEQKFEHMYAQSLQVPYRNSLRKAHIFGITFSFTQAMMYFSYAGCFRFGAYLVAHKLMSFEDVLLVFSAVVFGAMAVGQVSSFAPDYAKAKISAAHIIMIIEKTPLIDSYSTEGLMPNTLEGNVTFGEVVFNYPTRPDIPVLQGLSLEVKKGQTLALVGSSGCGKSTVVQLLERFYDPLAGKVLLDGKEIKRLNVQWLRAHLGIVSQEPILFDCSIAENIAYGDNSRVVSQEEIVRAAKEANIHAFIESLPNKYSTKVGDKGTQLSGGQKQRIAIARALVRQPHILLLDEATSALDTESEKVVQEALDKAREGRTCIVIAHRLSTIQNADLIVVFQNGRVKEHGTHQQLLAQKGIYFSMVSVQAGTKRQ

[3] = test system: colon cancer cell line SW620 cells; assay: Cytotoxicity in colon cancer cell line SW620 with MTS assay; type: cell-based; details: for pIC50: read-out: IC50 in SW620
Experimental: The cytotoxicity of compounds DNR-1-DNR-6 prepared in this manner was examined in colon cancer cell line SW620 cells with MTS assay. […] Then 20 μL MTS/PMS assay solution was added to each well and the absorbance was recorded. The cell survival was calculated as percentage of cell control group without treatment. The IC50 of all these compounds against colon cancer cell line SW620 are summarized in Table 1 and graphically illustrated in FIGS. 1A and 1B. These IC50 values were calculated by WinNonlin 4.1 (Pharsight) from the dose-response curves of percentage of cell growth with the model: E=Emax−(Emax−E0)×[C/(C+EC50)].

K562/Dox = type: cell-based
[4] = 10 mg/kg twice per week for three weeks

Row | SMILES | pIC50 (leukemia cells K562) | IC50 (leukemia cells K562) [nM] | pIC50 ([1]; K562, 72 h) | pIC50 ([3]; Homo sapiens, SW-620, 72 h) | DRI (drug resistance index) [1] | other results
1 | COc1cccc2c1C(=O)c1c(O)c3c(c(O)c1C2=O)C[C@@](O)(C(C)=O)C[C@@H]3O[C@H]1C[C@H](N)[C@H](O)[C@H](C)O1 [DNR, daunorubicin, reference compound] | 7.82 | 15 | < 5.30 | 7.48 | – | time by which 50% mice died ([2]; 10 mg/kg): < 20 days; body weight decrease [2, 4]: more than 70%; time by which all mice died ([2]; 10 mg/kg, due to both tumor growth and drug toxicity): < 30 days; tumor growth inhibition (in words) [2]: significantly inhibited tumor growth; effect of P-gp inhibitor (CsA) on retention of drug in K562/Dox cells, uptake and efflux phases (P-gp): significantly inhibited the drug efflux and increased drug accumulation; cell killing effect in combination with CsA (K562/Dox): more than 70%; cell killing effect, drug alone (K562/Dox): 30%
2 | COc1cccc2c1C(=O)c1c(O)c3c(c(O)c1C2=O)C[C@@](O)(C(C)=O)C[C@@H]3OC1CC(N=[N+]=[N-])C(OC2CC(N=[N+]=[N-])C(O)C(C)O2)C(C)O1 (stereo partly drawn) [Compound 6] | 5.95 | – | 5.19 | – | 5.64 | –
3 | COc1cccc2c1C(=O)c1c(O)c3c(c(O)c1C2=O)C[C@@](O)(C(C)=O)C[C@@H]3O [DNR-A, reference compound] | – | – | – | – | – | fold lower cytotoxicity than compounds DNR-1-DNR-6 [3]: 70-100 fold; pIC50 ([3]; MTS assay, 72 hours): < 5.70
4 | COc1cccc2c1C(=O)c1c(O)c3c(c(O)c1C2=O)C[C@@](O)(C(C)=O)C[C@@H]3OC1CC(N=[N+]=[N-])C(OC2CC(O)C(O)C(C)O2)C(C)O1 (stereo partly drawn) [Compound 2] | 6.54 | 200 to 1100 | 5.26 | – | 18.94 | –
5 | COc1cccc2c1C(=O)c1c(O)c3c(c(O)c1C2=O)C[C@@](O)(C(C)=O)C[C@@H]3OC1CC(OC)C(O)C(C)O1 (stereo partly drawn) [DNR-4] | – | – | – | 6.98 | – | –
6 | COc1cccc2c1C(=O)c1c(O)c3c(c(O)c1C2=O)C[C@@](O)(C(C)=O)C[C@@H]3OC1CC(C)(OC)C(O)C(C)O1 (stereo partly drawn) [DNR-3] | – | – | – | < 6.00 | – | –
7 | COc1cccc2c1C(=O)c1c(O)c3c(c(O)c1C2=O)C[C@@](O)(C(C)=O)C[C@@H]3OC1CC(N=[N+]=[N-])C(OC2CCC(O)C(C)O2)C(C)O1 (stereo partly drawn) [Compound 1] | 6.10 | 200 to 1100 | – | – | 2.45 | –
8 | COc1cccc2c1C(=O)c1c(O)c3c(c(O)c1C2=O)C[C@@](O)(C(C)=O)C[C@@H]3OC1CCC(N=[N+]=[N-])C(C)O1 (stereo partly drawn) [DNR-6] | – | – | – | < 6.00 | – | cytotoxicity in SW620 (in words) ([3]; FIG. 1B): lost its cytotoxicity
9 | COc1cccc2c1C(=O)c1c(O)c3c(c(O)c1C2=O)C[C@@](O)(C(C)=O)C[C@@H]3OC1CC(N=[N+]=[N-])C(O)C(C)O1 (stereo partly drawn) [ADNR, 3′-azido-deamino-daunorubicin] | 7.12 | – | – | – | 13 | fold more active than DNR against drug-resistant K562 cells [1]: at least 5 fold; pIC50 [1]: 6.00; DRI (drug resistance index) ([1]; listed as 8): 13.3; fold lower DRI than that of DNR ([1]; versus DNR): 25 fold; fold higher maximum growth inhibition rate than DNR ([2]; 5 mg/kg): 2.5 fold; body weight decrease [2, 4]: did not show any significant body weight change; survival after 50 days [2, 4]: 100%; tumor growth inhibition (in words) [2]: significantly inhibited tumor growth; cell killing effect, drug alone (K562/Dox; 1 μM, K562/Dox, without CsA): more than 50%; cell killing effect in combination with CsA (K562/Dox; drug 1 μM plus CsA 5 μM, K562/Dox): did not change the cell killing effects
10 | COc1cccc2c1C(=O)c1c(O)c3c(c(O)c1C2=O)C[C@@](O)(C(C)=O)C[C@@H]3OC1CCC(O)C(C)O1 (stereo partly drawn) [DNR-5] | – | – | – | 6.46 | – | –
11 | COc1cccc2c1C(=O)c1c(O)c3c(c(O)c1C2=O)C[C@@](O)(C(C)=O)C[C@@H]3OC1CC(N=[N+]=[N-])C(OC2CC(C)(OC)C(O)C(C)O2)C(C)O1 (stereo partly drawn) [Compound 4] | 6.65 | 200 to 1100 | 4.92 | – | 53.64 | –
12 | COc1cccc2c1C(=O)c1c(O)c3c(c(O)c1C2=O)C[C@@](O)(C(C)=O)C[C@@H]3OC1OC(C)C(O)C(O)C1O (stereo partly drawn) [DNR-1] | – | – | – | 6.58 | – | –

Source: patent US7737123B2, “Multidrug resistant anticancer anthracyclines” (The Ohio State University Research Foundation, priority 2005, dated 2010)
